Results from patent publication US9994548B2, “Phenyl-substituted nicotinic ligands, and methods of use thereof” (Georgetown University, priority 2011, dated 2018).
“Also recorded” adds a separate entry of the source.

Legend:
5-HT3 receptors = molecular target: T1, 5-HT3 receptors (Homo sapiens, UniProt P46098); test: NIMH PDSP primary binding assay; details: 10 μM
T1 sequence (P46098 24-478): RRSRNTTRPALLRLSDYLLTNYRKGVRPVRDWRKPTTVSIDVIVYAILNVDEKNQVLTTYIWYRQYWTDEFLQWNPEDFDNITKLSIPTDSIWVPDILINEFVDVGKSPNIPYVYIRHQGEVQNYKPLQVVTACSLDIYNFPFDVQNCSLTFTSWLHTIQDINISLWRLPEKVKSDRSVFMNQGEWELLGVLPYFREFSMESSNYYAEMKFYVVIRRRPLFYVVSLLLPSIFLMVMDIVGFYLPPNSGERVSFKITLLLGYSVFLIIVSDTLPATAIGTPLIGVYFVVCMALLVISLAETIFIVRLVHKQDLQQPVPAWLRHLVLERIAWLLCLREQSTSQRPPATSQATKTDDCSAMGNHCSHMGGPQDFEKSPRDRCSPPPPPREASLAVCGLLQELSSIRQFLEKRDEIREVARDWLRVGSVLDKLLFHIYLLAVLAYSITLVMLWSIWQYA
Description: All binding assays for targets other than nAChRs were performed by the National Institute of Mental Health's Psychoactive Drug Screening Program (PDSP) supported by NIMH grant HHSN-271-2008-00025-C(PI: Bryan Roth). For experimental details (Ki determinations, receptor binding profiles, functional data, MDR1 data, etc. as appropriate) refer to the PDSP web site http://pdsp.med.unc.edu/.
The compound either is not a “hit” in primary binding assays, or showing at least 3,000-fold lower binding affinities than that for α4β2 nAChRs in secondary binding assays (FIG. 19,).

rat α3β4 nAChRs = molecular target: T2, rat α3β4 nAChRs (Rattus norvegicus, UniProt P04757+P12392); test: 86Rb+ efflux assay in stably transfected cells; type: cell-based; details: 86Rb+ efflux, rat α3β4
T2 construct: expressed in transfected cells; host or cells: HEK 293 (KXα3β4R2)
T2 sequence (P04757 26-499): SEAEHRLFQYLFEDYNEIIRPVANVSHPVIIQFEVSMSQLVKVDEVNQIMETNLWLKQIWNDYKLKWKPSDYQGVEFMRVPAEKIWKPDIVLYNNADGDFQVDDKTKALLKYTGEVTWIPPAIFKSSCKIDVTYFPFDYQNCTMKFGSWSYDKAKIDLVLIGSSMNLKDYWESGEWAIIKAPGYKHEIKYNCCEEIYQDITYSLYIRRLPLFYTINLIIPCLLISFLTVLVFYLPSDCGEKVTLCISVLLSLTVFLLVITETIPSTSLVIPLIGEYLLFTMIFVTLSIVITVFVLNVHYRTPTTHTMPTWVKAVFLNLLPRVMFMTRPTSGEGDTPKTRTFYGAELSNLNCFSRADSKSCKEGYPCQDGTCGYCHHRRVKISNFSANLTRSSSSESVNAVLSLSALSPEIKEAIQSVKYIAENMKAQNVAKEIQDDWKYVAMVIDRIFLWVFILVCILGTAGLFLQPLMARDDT
T2 sequence (P12392 21-495): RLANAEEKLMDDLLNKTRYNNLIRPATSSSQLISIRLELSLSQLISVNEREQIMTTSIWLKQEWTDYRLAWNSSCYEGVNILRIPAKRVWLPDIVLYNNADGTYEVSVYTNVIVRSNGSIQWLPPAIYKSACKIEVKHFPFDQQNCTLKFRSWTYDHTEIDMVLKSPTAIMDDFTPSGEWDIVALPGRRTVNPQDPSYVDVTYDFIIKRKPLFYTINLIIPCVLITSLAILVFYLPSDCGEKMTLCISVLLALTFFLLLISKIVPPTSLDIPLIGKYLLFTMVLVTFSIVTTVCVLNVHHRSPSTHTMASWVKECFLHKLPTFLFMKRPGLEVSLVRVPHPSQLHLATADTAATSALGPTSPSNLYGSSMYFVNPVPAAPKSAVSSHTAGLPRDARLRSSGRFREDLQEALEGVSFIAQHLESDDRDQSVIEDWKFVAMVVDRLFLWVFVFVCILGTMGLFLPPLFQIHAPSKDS
Description: (§1) The cell line expressing rat α3β4 nAChRs, KXα3β4R2, was established previously by stably transfecting HEK 293 cells with combinations of rat nAChR α3 and β4 subunit genes. The cell line expressing human α4β2 nAChRs, YXα4β2H1, were established recently (Tuan et al., 2012, manuscript in preparation). These cell lines were maintained in minimum essential medium (MEM) supplemented with 10% fetal bovine serum, 100 units/mL penicillin G, […] streptomycin and selective antibiotics at 37° C. with 5% CO2 in a humidified incubator. Tissue culture medium and antibiotics were obtained from Invitrogen Corporation (Carlsbad, Calif.), unless otherwise stated. Fetal bovine serum and horse serum were provided by Gemini Bio-Products (Woodland, Calif.).
(§2) Functional properties of compounds at nAChRs expressed in the transfected cells were measured using ^86Rb^+ efflux assays as described previously. In brief, cells were plated into 24-well plates coated with poly-D-lysine. The plated cells were grown at 37° C. for 18 to 24 hour to reach 85-95% confluence. The cells were then incubated in growth medium (0.5 mL/well) containing ^86Rb^+ (2 μCi/mL) for 4 hour at 37° C. The loading mixture was then aspirated, and the cells were washed four times with 1 mL buffer (15 mM HEPES, 140 mM NaCl, 2 mM KCl, 1 mM MgSO4, 1.8 mM CaCl2, 11 mM Glucose, pH 7.4). One mL of buffer with or without compounds to be tested was then added to each well. After incubation for 2 min, the assay buffer was collected for measurements of ^86Rb^+ released from the cells. Cells were then lysed by adding 1 mL of 100 mM NaOH to each well, and the lysate was collected for determination of the amount of ^86Rb^+ that was in the cells at the end of the efflux assay. Radioactivity of assay samples and lysates was measured by liquid scintillation counting. Total loading (cpm) was calculated as the sum of the assay sample and the lysate of each well. The amount of ^86Rb^+ efflux was expressed as a percentage of ^86Rb^+ loaded. […] For obtaining EC50 and Emax values, stimulation curves were constructed in which 8 different concentrations of a ligand were included in the assay. […] EC50, Emax and IC50(10′) values were determined by nonlinear least-squares regression analyses (GraphPad, San Diego, Calif.).
(§3) Functional properties of the new ligands were determined by ^86Rb^1 efflux assays in cells expressing α3β4 and α4β2 nAChR subtypes. Functional activity of each new ligand was measured in terms of its agonism, antagonism and desensitization ability.
(§4) Agonist activity of each of the ligands was tested at eight concentrations. […] The full concentration-effect curves generated potency (EC50) and efficacy (Emax) of each ligand.
(§5) Though the ^86Rb^+ efflux assays were the main methodology used to determine functional properties, whole-cell current measurements were also used to verify the key experiments.

human α4β2 nAChRs = molecular target: T3, human α4β2 nAChRs (Homo sapiens, UniProt P17787+P43681); test: 86Rb+ efflux assay in stably transfected cells; type: cell-based
T3 construct: expressed in transfected cells
T3 sequence (P43681 29-627 limits assumed): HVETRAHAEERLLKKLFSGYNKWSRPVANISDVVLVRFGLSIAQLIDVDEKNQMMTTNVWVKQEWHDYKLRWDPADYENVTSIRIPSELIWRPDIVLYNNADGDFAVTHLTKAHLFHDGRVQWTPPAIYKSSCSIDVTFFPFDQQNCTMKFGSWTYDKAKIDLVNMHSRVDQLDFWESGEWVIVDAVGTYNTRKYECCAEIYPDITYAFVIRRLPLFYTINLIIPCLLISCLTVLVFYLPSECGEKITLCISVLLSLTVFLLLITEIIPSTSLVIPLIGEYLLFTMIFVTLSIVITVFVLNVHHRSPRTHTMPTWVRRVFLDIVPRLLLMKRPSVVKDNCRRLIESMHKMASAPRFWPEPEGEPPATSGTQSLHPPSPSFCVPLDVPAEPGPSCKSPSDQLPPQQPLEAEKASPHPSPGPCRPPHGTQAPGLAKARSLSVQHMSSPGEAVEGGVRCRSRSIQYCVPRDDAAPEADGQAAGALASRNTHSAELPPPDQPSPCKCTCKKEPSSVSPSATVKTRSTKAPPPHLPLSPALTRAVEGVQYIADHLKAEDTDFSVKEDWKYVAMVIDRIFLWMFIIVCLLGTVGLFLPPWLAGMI
T3 sequence (P17787 26-502): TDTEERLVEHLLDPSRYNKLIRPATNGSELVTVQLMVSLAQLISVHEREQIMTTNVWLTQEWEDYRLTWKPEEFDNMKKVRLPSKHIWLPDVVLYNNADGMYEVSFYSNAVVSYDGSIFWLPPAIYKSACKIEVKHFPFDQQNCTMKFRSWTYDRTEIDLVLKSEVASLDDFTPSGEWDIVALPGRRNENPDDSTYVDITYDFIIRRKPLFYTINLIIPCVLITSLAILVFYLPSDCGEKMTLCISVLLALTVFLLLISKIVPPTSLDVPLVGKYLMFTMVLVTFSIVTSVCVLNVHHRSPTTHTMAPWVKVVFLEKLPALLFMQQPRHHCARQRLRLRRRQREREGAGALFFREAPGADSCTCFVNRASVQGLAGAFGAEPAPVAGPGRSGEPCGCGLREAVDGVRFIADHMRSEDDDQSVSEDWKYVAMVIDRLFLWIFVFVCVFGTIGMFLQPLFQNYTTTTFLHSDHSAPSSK
Description: as §1, §2, §3, §4, §5

locomotor activity = test: Locomotor activity in figure-8 maze; type: in vivo, rat; details: 1-hour session
Description: The studies were conducted in accordance with the regulations outlined by the Duke University Animal Care and Use Committee. The rats housed in approved standard laboratory conditions in a Duke University vivarium facility near the testing room to minimize stress induced by transporting the rats. The rats were kept on a 12:12 reverse day/night cycle, so that they were in their active phase during behavioral testing. The rats in the drug iv self-administration studies were singly housed to prevent them from damaging each other's catheters. The rats in the locomotor activity studies were housed in groups of 2-3. All rats were allowed access to water at all times; the rats in the nicotine-self-administration study were fed daily approximately 30 minutes after completing the sessions while those in the locomotor activity study had continuous access to food.
VMY-2-95 was injected s.c. 10 minutes before testing in a volume of 1 mL/kg of saline. The doses (0, 0.3, 1 and 3 mg/kg) were given in a counterbalanced order with at least two days between successive injections.
Another set of rats (N=12) was tested for acute VMY-2-95 effects on locomotor activity in a figure-8 maze over the course of a 1-hour session (see FIG. 10). […] Numbers of photobeam breaks were recorded for five minutes blocks over the one-hour session. […]

C(#Cc1cncc(OC[C@@H]2CCN2)c1)c1ccccc1 [VMY-2-95, (S)-3-(azetidin-2-ylmethoxy)-5-(phenylethynyl)pyridine]
primary binding result at 5-HT3 receptors (5-HT3 receptors): not a “hit”
agonist activity at α3β4 nAChRs (rat α3β4 nAChRs): did not show any detectable agonist activity; also recorded: does not show agonist activity
EC50 (human α4β2 nAChRs): 8.6 nM
agonist activity at α4β2 receptors (human α4β2 nAChRs; 86Rb+ efflux, human α4β2): clear agonist activity
IC50 (human α4β2 nAChRs; 10 min pre-treatment before 100 μM (−)-nicotine, read-out: IC50(10′) α4β2 (desensitization potency)): 16 nM
inhibition of nicotine activation of α4β2 receptors (human α4β2 nAChRs; preincubated with the cells for 10 min): inhibited
dose at peak of increased locomotor activity (locomotor activity; s.c.): 1 mg/kg
locomotor activity (locomotor activity; three doses tested (0.3, 1, 3 mg/kg s.c.)): significantly increased
